Measured values from patent US8901307B2, “Chemical compounds 251” (AstraZeneca AB, priority 2008, dated 2014).
Where a name gives a salt, the structure may show the parent alone.

What was measured:
[1] = molecular target: T1, human His-PIM1 [2-313] (Homo sapiens, UniProt P11309); experiment: PIM1 in-vitro mobility shift assay (Caliper LC3000, FL-Ahx-Bad phosphorylation); format: biochemical; conditions: 1.5 h; percent inhibition at 0.3 uM compound; read-out: PIM1 % I at 0.3 uM
T1 construct: purified human His-PIM1 [2-313] enzyme; His (N); purchased University of Dundee, Scotland; host or cells: baculovirus system
T1 sequence (P11309 2-313): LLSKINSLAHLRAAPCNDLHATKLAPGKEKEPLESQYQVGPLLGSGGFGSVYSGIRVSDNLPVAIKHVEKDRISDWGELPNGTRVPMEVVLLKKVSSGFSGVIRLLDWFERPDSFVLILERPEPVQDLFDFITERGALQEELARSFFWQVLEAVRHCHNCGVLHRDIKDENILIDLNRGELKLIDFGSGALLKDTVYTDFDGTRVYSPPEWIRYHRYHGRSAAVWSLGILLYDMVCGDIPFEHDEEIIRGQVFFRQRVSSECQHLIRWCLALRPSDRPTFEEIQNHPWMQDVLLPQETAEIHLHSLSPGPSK
How it was run: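 Compound preincubated 20 min at 25 °C with 2.4 nM PIM1, 3.6 µM FL-Ahx-Bad peptide and 240 µM ATP (1.2× mix concentrations). Reaction started with 24 mM MgCl2 mix, run 90 min at 25 °C, EDTA-stopped. Phospho/unphospho peptide separated by microfluidic mobility shift; percent inhibition from ratiometric turnover.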

[2] = molecular target: T2, human His-PIM2 [23-299] (Homo sapiens, UniProt Q9P1W9); experiment: PIM2 in-vitro mobility shift assay (Caliper LC3000, FL-Ahx-Bad phosphorylation); format: biochemical; conditions: 1.5 h; percent inhibition at 0.3 uM compound; read-out: PIM2 % I at 0.3 uM
T2 construct: purified human His-PIM2 [23-299] enzyme; His (N); host or cells: E. coli
T2 sequence (Q9P1W9 23-299): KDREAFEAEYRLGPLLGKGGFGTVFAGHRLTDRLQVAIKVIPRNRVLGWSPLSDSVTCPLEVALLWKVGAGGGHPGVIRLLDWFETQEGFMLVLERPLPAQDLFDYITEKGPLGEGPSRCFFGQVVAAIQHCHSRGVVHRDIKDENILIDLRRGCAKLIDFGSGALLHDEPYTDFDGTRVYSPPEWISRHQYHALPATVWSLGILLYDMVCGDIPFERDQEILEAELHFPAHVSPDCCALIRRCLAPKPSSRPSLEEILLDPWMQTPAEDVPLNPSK

inhibition at 0.3 µM [1]	inhibition at 0.3 µM [2]	SMILES
92.9%	54.3%	CN1CCN(c2ccccc2/C=C2\SC(=O)NC2=O)CC1 [Example 84A, (5Z)-5-[2-(4-methylpiperazin-1-yl)benzylidene]-1,3-thiazolidine-2,4-dione]
47.8%	29.6%	NC(=O)COc1cccc(/C=C2\SC(=O)NC2=O)c1 [Example 84C, (Z)-2-(3-((2,4-dioxothiazolidin-5-ylidene)methyl)phenoxy)acetamide]
27.8%	< 5%	O=C1NC(=O)/C(=C/c2cccc(OCCCN3CCCCC3)c2)S1 [Example 84D, (Z)-5-(3-(3-(piperidin-1-yl)propoxy)benzylidene)thiazolidine-2,4-dione]
11.7%	6.1%	CN1CCN(Cc2cccc(/C=C3\SC(=O)NC3=O)c2)CC1 [Example 84E, (Z)-5-(3-((4-methylpiperazin-1-yl)methyl)benzylidene)thiazolidine-2,4-dione]
87.4%	52.4%	CN(C)CCN(C)S(=O)(=O)c1ccc(-c2ccccc2/C=C2\SC(=O)NC2=O)cc1 [Example 84F, (Z)-N-(2-(dimethylamino)ethyl)-2′-((2,4-dioxothiazolidin-5-ylidene)methyl)-N-methylbiphenyl-4-sulfonamide]
92%	63%	COc1ccc(N2CC[C@H](N(C)C)C2)c(C=C2SC(=O)NC2=O)c1 [Example 84G, (S)-5-(2-(3-(dimethylamino)pyrrolidin-1-yl)-5-methoxybenzylidene)thiazolidine-2,4-dione]
> 95%	67%	CN(C)[C@H]1CCN(c2ccc(C(F)(F)F)cc2C=C2SC(=O)NC2=O)C1 [Example 84H, (S)-5-(2-(3-(dimethylamino)pyrrolidin-1-yl)-5-(trifluoromethyl)benzylidene)thiazolidine-2,4-dione]
> 95%	82.7%	CN(C)[C@H]1CCN(c2ccc(Cl)cc2C=C2SC(=O)NC2=O)C1 [Example 84I, (S)-5-(5-chloro-2-(3-(dimethylamino)pyrrolidin-1-yl)benzylidene)thiazolidine-2,4-dione]
93.3%	40.4%	Cc1ccc(C=C2SC(=O)NC2=O)c(N2CC[C@H](N(C)C)C2)c1 [Example 84J, (S)-5-(2-(3-(dimethylamino)pyrrolidin-1-yl)-4-methylbenzylidene)thiazolidine-2,4-dione]
> 95%	90.8%	CN(C)[C@H]1CCN(c2ccc(F)cc2C=C2SC(=O)NC2=O)C1 [Example 84K, (S)-5-(2-(3-(dimethylamino)pyrrolidin-1-yl)-5-fluorobenzylidene)thiazolidine-2,4-dione]
> 95%	55.2%	Cc1ccc(N2CC[C@H](N(C)C)C2)c(C=C2SC(=O)NC2=O)c1 [Example 84L, (S)-5-(2-(3-(dimethylamino)pyrrolidin-1-yl)-5-methylbenzylidene)thiazolidine-2,4-dione]
> 95%	80.9%	CN(C)[C@H]1CCN(c2ccc(Br)cc2C=C2SC(=O)NC2=O)C1 [Example 84M, (S)-5-(5-bromo-2-(3-(dimethylamino)pyrrolidin-1-yl)benzylidene)thiazolidine-2,4-dione]
92.8%	81.4%	CN(C)[C@H]1CCN(c2c(F)cccc2C=C2SC(=O)NC2=O)C1 [Example 84N, (S)-5-(2-(3-(dimethylamino)pyrrolidin-1-yl)-3-fluorobenzylidene)thiazolidine-2,4-dione]
< 5%	< 5%	CN(C)[C@H]1CCN(c2cccc(Cl)c2C=C2SC(=O)NC2=O)C1 [Example 84O, (S)-5-(2-chloro-6-(3-(dimethylamino)pyrrolidin-1-yl)benzylidene)thiazolidine-2,4-dione]
> 95%	82.4%	N[C@H]1CCN(c2cc(Cl)ccc2/C=C2\SC(=O)NC2=O)C1 [Example 85, (S,Z)-5-(2-(3-aminopyrrolidin-1-yl)-4-chlorobenzylidene)thiazolidine-2,4-dione hydrochloride]
> 95%	> 95%	N[C@H]1CCN(c2c(Cl)cccc2/C=C2\SC(=O)NC2=O)C1 [Example 86, (S,Z)-5-(2-(3-aminopyrrolidin-1-yl)-3-chlorobenzylidene)thiazolidine-2,4-dione hydrochloride]
> 95%	88.4%	N[C@H]1CCN(c2ccc(C(F)(F)F)cc2/C=C2\SC(=O)NC2=O)C1 [Example 88, (S,Z)-5-(2-(3-aminopyrrolidin-1-yl)-5-(trifluoromethyl)benzylidene)thiazolidine-2,4-dione hydrochloride]
48.4%	21.5%	O=C1NC(=O)/C(=C/c2cccnc2N2CCNCC2)S1 [Example 89, (Z)-5-((2-(piperazin-1-yl)pyridin-3-yl)methylene)thiazolidine-2,4-dione hydrochloride]
78.2%	86.3%	NCCC(=O)N1CCN(c2ncccc2/C=C2\SC(=O)NC2=O)CC1 [Example 90, (Z)-5-((2-(4-(3-aminopropanoyl)piperazin-1-yl)pyridin-3-yl)methylene)thiazolidine-2,4-dione trifluoroacetate]
6.6%	16.4%	O=C1NC(=O)/C(=C/c2ccccc2N2CCN(C(=O)C3CCNCC3)CC2)S1 [Example 91, (Z)-5-(2-(4-(piperidine-4-carbonyl)piperazin-1-yl)benzylidene)thiazolidine-2,4-dione]
> 95%	81.5%	O=C1NC(=O)/C(=C/c2cc(C(F)(F)F)ccc2N2CCN(C(=O)C3CCCNC3)CC2)S1 (stereo not drawn) [Example 92, (Z)-5-(2-(4-(piperidine-3-carbonyl)piperazin-1-yl)-5-(trifluoromethyl)benzylidene)thiazolidine-2,4-dione hydrochloride]
> 95%	66.3%	NCCC(=O)N1CCN(c2ccc(C(F)(F)F)cc2/C=C2\SC(=O)NC2=O)CC1 [Example 93, (Z)-5-(2-(4-(3-aminopropanoyl)piperazin-1-yl)-5-(trifluoromethyl)benzylidene)thiazolidine-2,4-dione hydrochloride]
> 95%	> 95%	COc1cccc(/C=C2\SC(=O)NC2=O)c1N1CCN(C(=O)CCN)CC1 [Example 94, (Z)-5-(2-(4-(3-aminopropanoyl)piperazin-1-yl)-3-methoxybenzylidene)thiazolidine-2,4-dione hydrochloride]
> 95%	> 95%	NCCC(=O)N1CCN(c2c(Cl)cccc2/C=C2\SC(=O)NC2=O)CC1 [Example 95, (Z)-5-(2-(4-(3-aminopropanoyl)piperazin-1-yl)-3-chlorobenzylidene)thiazolidine-2,4-dione hydrochloride]
> 95%	> 95%	COc1cccc(/C=C2\SC(=O)NC2=O)c1N1CC[C@H](N)C1 [Example 96, hydrochloride]
> 95%	> 95%	COc1cc(/C=C2\SC(=O)NC2=O)c(N2CCC(CN)C2)cc1OC (stereo not drawn) [Example 99, (Z)-5-(2-(3-(aminomethyl)pyrrolidin-1-yl)-4,5-dimethoxybenzylidene)thiazolidine-2,4-dione hydrochloride]
93%	93.9%	COc1cc(/C=C2\SC(=O)NC2=O)c(N2CC[C@@H](N)C2)cc1OC [Example 100, (R,Z)-5-(2-(3-aminopyrrolidin-1-yl)-4,5-dimethoxybenzylidene)thiazolidine-2,4-dione hydrochloride]
> 95%	> 95%	COc1cc(/C=C2\SC(=O)NC2=O)c(N2CC[C@H](N)C2)cc1OC [Example 101, (S,Z)-5-(2-(3-aminopyrrolidin-1-yl)-4,5-dimethoxybenzylidene)thiazolidine-2,4-dione hydrochloride]
93.3%	91.9%	O=C1NC(=O)/C(=C/c2ccccc2N2CCCN(C(=O)C3CCCNC3)CC2)S1 (stereo not drawn) [Example 102, (Z)-5-(2-(4-(piperidine-3-carbonyl)-1,4-diazepan-1-yl)benzylidene)thiazolidine-2,4-dione hydrochloride]
> 95%	88.7%	NCCCCC(=O)N1CCCN(c2ccccc2/C=C2\SC(=O)NC2=O)CC1 [Example 103, (Z)-5-(2-(4-(5-aminopentanoyl)-1,4-diazepan-1-yl)benzylidene)thiazolidine-2,4-dione hydrochloride]

SMILES	inhibition at 0.3 µM [1]	inhibition at 0.3 µM [2]
O=C1NC(=O)/C(=C/c2cc(C(F)(F)F)ccc2N2CCNCC2)S1 [Example 87, (Z)-5-(2-(piperazin-1-yl)-5-(trifluoromethyl)benzylidene)thiazolidine-2,4-dione hydrochloride]	> 95%	84.2%
COc1cccc(/C=C2\SC(=O)NC2=O)c1N1CCNCC1 [Example 97, (Z)-5-(3-methoxy-2-(piperazin-1-yl)benzylidene)thiazolidine-2,4-dione hydrochloride]	> 95%	86.4%
O=C1NC(=O)/C(=C/c2cccc(Cl)c2N2CCNCC2)S1 [Example 98, (Z)-5-(3-chloro-2-(piperazin-1-yl)benzylidene)thiazolidine-2,4-dione hydrochloride]	> 95%	81.4%
